The source of these data is patent EP0270317A2, “Pharmaceutical compositions for the treatment of diseases caused by viruses” (Kabushiki Kaisha Ueno Seiyaku Oyo Kenkyujo, priority 1986, dated 1988).

The test system of the experiment is HTLV-III. Description: inhibition of viral infection, MT-4 cells infected with HTLV-III, time course (Example 18). The experiment is classed as cell-based. Particulars: sole use of 10 nM AZT or 5 µg/ml dextran sulfate; day 9. As to the method:
AIDS virus HTLV-III was challenged to established human T-lymphocyte culture cells MT-4 and the cell suspension and virus particles were incubated at 37°C for 1 hour. The cells were then washed with phosphate buffered saline once and cultured with or without various doses of the test substances in RPMI-1640 medium at 37°C under 5 % CO₂ in an incubator.
MT-4 cells infected with HTLV-III were destructed as the virus proliferated, resulting in decrease of viable cells. Prior to the cytolysis by viral cytopathic effect, the cells infected with HTLV-III which were detectable by indirct immuno fluorescence method appeared. On day 12, number of the living cells was counted to know the extent of infection, and rate of the infected cells was determined by indirect immuno-fluorescence method using an antibody having specificity to the virus specific antigen. As the test substances, 3ʹ-azido-3ʹ-deoxythymidine (AZT) and dextran sulfate(M.W. 7000 - 8000, S-content 17 - 20%) (DS) were used.
In the same procedure as in Expample 7, the MT-4 cells infected with HTLV-III were cultured in medium and the changes in the number of viable cells and the rate of the infected cells were recorded in time course. […]

Molecules are shown by their SMILES.

As for `Cc1cn([C@H]2C[C@H](N=[N+]=[N-])[C@@H](CO)O2)c(=O)[nH]c1=O` [AZT, 3ʹ-azido-3ʹ-deoxythymidine], the infection came out at 100%.
